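Grown in 96-well plates, cells were treated for 48 hours with each compound at five concentrations. Insufficient inhibition: endpoint recorded as highest concentration tested. TGI: concentration producing complete growth inhibition.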
How the values were obtained:
Assay in all cases: NCI tumour cell line growth inhibition, 48 h
TK-10 renal = test system: TK-10 renal
A549 NSCLC = test system: A549 NSCLC
MALME-3M melanoma = test system: MALME-3M melanoma
NCI-H226 lung = test system: NCI-H226 lung
SF-268 CNS = test system: SF-268 CNS
MOLT-4 leukemia = test system: MOLT-4 leukemia
NCI-H522 lung = test system: NCI-H522 lung
SR leukemia = test system: SR leukemia

| SMILES | TGI (TK-10 renal) [µM] | TGI (A549 NSCLC) [µM] | TGI (MALME-3M melanoma) [µM] | TGI (NCI-H226 lung) [µM] | TGI (SF-268 CNS) [µM] | TGI (MOLT-4 leukemia) [µM] | TGI (NCI-H522 lung) [µM] | TGI (SR leukemia) [µM] |
| --- | --- | --- | --- | --- | --- | --- | --- | --- |
| Fc1ccccc1C1CC(C(c2ccccc2)c2ccccc2)=Nc2ccccc2S1 (configuration not stated) | 25.2 | 46.4 | 29.5 | 32.6 | 26.1 | 11 | 21.7 | – |
| O=c1nc2cc(-c3ccccc3)[nH]c2nn1-c1c(Cl)cc(Cl)cc1Cl | 69.4 | 91.7 | 65.7 | 60.9 | > 100 | 64.5 | 52.1 | 62.5 |
| COc1cc(C2C(C(=O)Nc3ccccc3)=C(C)NC(C)=C2C(=O)Nc2ccccc2)ccc1O | > 100 | > 100 | > 100 | > 100 | > 100 | > 100 | – | 93.3 |
| COc1ccc(O)c2c1C(=O)CCCC2=O | > 100 | > 100 | > 100 | – | > 100 | > 100 | > 100 | – |
| C[Si](C)(C)/C=C/CN1C(=O)CCC1O (configuration not stated) | > 100 | > 100 | > 100 | > 100 | > 100 | > 100 | > 100 | > 100 |
| CN(O)C(=O)Cc1ccccc1 | > 100 | > 100 | > 100 | > 100 | > 100 | > 100 | > 100 | > 100 |
| O=c1cccccc1NCCCCNc1cccccc1=O | > 100 | > 100 | > 100 | > 100 | > 100 | > 100 | > 100 | – |
| COc1cccc(C2C(C(=O)Nc3cc(=O)n(C)c(=O)n3C)=C(C)NC(C)=C2C(=O)Nc2cc(=O)n(C)c(=O)n2C)c1O | > 100 | > 100 | > 100 | > 100 | > 100 | > 100 | > 100 | – |
| Cc1ccc(Nc2ccc(Nc3ccc(C)cc3)c3c2C(=O)c2c(O)ccc(O)c2C3=O)cc1 | > 100 | > 100 | > 100 | – | > 100 | > 100 | > 100 | – |
| O=[N+]([O-])c1ccccc1C1N2CCCCC2[C@@H]2c3[nH]c4ccccc4c3CCN12 (some centres not stated) | 38.4 | 35.8 | – | – | 27.4 | 28.1 | – | – |
| CCC1(CN(C)C)CC/C(=C\c2ccc3c(c2)OCO3)C1=O (configuration not stated) | > 100 | > 100 | > 100 | > 100 | > 100 | > 100 | > 100 | – |
| Cc1nc(C(N)=S)sc1C(=O)/C=C/c1cccc(O)c1 | > 100 | > 100 | > 100 | > 100 | > 100 | > 100 | > 100 | – |
| CCC1(OC(C)=O)C(=O)OCc2c1cc1n(c2=O)Cc2cc3ccccc3nc2-1 (configuration not stated) | > 100 | > 100 | > 100 | 4.55 | > 100 | – | 15.2 | 11.9 |
| Cc1cc(C)c(C(=O)OC(c2ccccc2)C(c2ccccc2)N2CCOCC2)c(C)c1 (configuration not stated) | > 100 | > 100 | > 100 | > 100 | > 100 | > 100 | > 100 | – |
| COc1ccc(NC(=O)C(=O)C2NC(=S)NC2=O)c(OC)c1 (configuration not stated) | > 100 | > 100 | > 100 | > 100 | > 100 | > 100 | – | – |
| CC[C@@H]1OC2(C)CC(S(=O)(=O)c3ccccc3)CC1O2 (some centres not stated) | – | > 100 | > 100 | > 100 | > 100 | > 100 | > 100 | > 100 |
| CCc1cccc(C)c1NC(=O)NS(=O)(=O)c1ccc(C)cc1 | > 100 | > 100 | > 100 | – | > 100 | > 100 | > 100 | – |
| O=C1C(c2ccccc2)=C(c2ccccc2)C(c2ccc(CCCCCCc3ccc(C4=C(c5ccccc5)C(=O)C(c5ccccc5)=C4c4ccccc4)cc3)cc2)=C1c1ccccc1 | > 100 | > 100 | > 100 | – | > 100 | > 100 | > 100 | – |
| O=C1C2=C(c3ccccc31)C(c1ccccc1Cl)N1C(=O)CSC1=N2 (configuration not stated) | > 100 | > 100 | > 100 | > 100 | > 100 | > 100 | 88.7 | – |
| Cc1ccc(NC(=O)C(=O)Cc2nc3ccccc3o2)c(C)c1 | > 100 | > 100 | > 100 | > 100 | > 100 | – | – | – |
| CC1=C2C(c3ccccc3)(c3ccccc3)C3C=CC2(C=N3)N(C(=O)NC2CCCCC2)C1=O (configuration not stated) | – | 32.8 | 31.6 | – | 34.7 | 35.8 | – | 37.7 |
| COC1=C(OC)CCC(/C(C#N)=C/c2ccc(OC)c(OC)c2)=C1 | 98 | > 100 | – | > 100 | > 100 | > 100 | 70.5 | > 100 |
| CCCCCCCCCC(=O)CC(=O)c1c(O)cccc1O | > 100 | 96.1 | 74.4 | 70.2 | > 100 | > 100 | 89.7 | – |

— PubChem BioAssay (NCI)
